Results reported in US20160318987A1 (MEDIMMUNE LIMITED, priority 2013, published 2016).
Where a SMILES comes first, the peptide text is derived from it. [ ]: non-standard residue; d: D form. αMeF = C[C@](N)(Cc1ccccc1)C(=O)O; Aib = CC(C)(N)C(=O)O

How the values were obtained:
Format in all cases: cell-based
Settings in all cases: n = 2
[1] = molecular target: T1, hGLP-1R (Homo sapiens, UniProt P43220); test: cAMP functional assay, cells expressing human GLP-1 receptor (primary assay)
T1 construct: expressed in transfected cells
Protocol: (§1) The biological activities/receptor potencies of the synthetic GLP-1 peptides described herein are suitably tested for biological activity, e.g., stimulation of one or more cellular receptor responses. Stable cell lines expressing human, mouse, rat, or dog GLP-1 receptor (GLP-1R), glucagon receptor (GCGR) or glucose-dependent insulinotropic peptide (gastric inhibitory polypeptide) receptor (GIPR) are generated in HEK293 cells or CHO cells by standard methods.
(§2) cAMP assays were performed using “assay buffer”: Assay Buffer: 0.1% BSA (Sigma #A3059) in HBSS (Sigma #H8264) with 25 mM HEPES, pH 7.4 and containing 0.5 mM IBMX (Sigma #17018).
(§3) Low protein binding 384-well plates (Greiner #781280) are used to perform eleven 1 in 5 serial dilutions of test samples which are made in assay buffer. All sample dilutions are made in duplicate.
(§4) A frozen cryo-vial of cells expressing the receptor of interest is thawed rapidly in a water-bath, transferred to pre-warmed assay buffer and spun at 240× g for 5 minutes. Cells are re-suspended in assay buffer at a batch-dependent optimized concentration (e.g. hGCGR cells at 2×10^5 cells/ml, hGLP-1R and hGIPR cells at 1×10^5 cells /ml).
(§5) From the dilution plate, a 5 μL replica is stamped onto a black shallow-well u-bottom 384-well plate (Corning #3676). To this, 5 μL cell suspension is added and the plates incubated at room temperature for 30 minutes.
(§6) cAMP levels are measured using a commercially available cAMP dynamic 2 HTRF kit (Cisbio, Cat #62AM4PEJ), following the two step protocol as per manufacturer's recommendations. In brief; anti-cAMP cryptate (donor fluorophore) and cAMP-d2 (acceptor fluorophore) are made up separately by diluting each 1/20 in conjugate & lysis buffer provided in the kit. 5 μL anti-cAMP cryptate is added to all wells of the assay plate, and 5 μL cAMP-d2 is added to all wells except non-specific binding (NSB) wells, to which conjugate and lysis buffer are added. Plates are incubated at room temperature for one hour and then read on an Envision (Perkin Elmer) using excitation wavelength of 320 nm and emission wavelengths of 620 nm & 665 nm. EC50 values of the synthetic peptides determined in cAMP assays are then determined.

[2] = molecular target: T2, hGluc-R (Homo sapiens, UniProt P47871); test: cAMP functional assay, cells expressing human glucagon receptor (primary assay)
T2 construct: expressed in transfected cells
Protocol: as §1, §2, §3, §4, §5, §6

[3] = molecular target: T3, hGIP-R (Homo sapiens, UniProt P48546); test: cAMP functional assay, cells expressing human GIP receptor (primary assay)
T3 construct: expressed in transfected cells
T3 sequence (P48546 22-466): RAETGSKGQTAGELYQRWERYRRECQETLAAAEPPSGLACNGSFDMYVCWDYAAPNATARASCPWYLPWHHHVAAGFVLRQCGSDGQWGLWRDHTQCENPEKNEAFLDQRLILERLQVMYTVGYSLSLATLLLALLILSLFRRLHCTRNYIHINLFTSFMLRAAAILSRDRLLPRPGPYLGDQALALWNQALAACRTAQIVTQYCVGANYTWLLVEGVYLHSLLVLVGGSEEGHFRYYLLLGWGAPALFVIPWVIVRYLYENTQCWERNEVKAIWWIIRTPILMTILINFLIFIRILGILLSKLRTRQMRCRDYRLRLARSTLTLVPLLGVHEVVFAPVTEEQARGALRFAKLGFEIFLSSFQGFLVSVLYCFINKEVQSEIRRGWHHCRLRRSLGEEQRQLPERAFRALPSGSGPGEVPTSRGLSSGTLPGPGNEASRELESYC
Protocol: as §1, §2, §3, §4, §5, §6

T1 sequence (P43220 24-463): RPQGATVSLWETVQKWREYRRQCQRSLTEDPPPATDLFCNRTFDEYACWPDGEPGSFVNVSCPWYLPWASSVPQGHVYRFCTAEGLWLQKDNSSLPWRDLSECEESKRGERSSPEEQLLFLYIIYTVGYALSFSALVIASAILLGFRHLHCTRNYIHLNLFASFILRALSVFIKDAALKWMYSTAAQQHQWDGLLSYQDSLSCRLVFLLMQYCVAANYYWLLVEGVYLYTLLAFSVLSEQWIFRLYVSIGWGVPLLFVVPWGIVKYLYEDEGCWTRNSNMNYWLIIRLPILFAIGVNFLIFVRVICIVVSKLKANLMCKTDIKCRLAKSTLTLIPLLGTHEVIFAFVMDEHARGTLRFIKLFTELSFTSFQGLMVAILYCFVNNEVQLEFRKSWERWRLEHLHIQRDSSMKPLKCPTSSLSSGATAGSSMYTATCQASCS
T2 sequence (P47871 26-477): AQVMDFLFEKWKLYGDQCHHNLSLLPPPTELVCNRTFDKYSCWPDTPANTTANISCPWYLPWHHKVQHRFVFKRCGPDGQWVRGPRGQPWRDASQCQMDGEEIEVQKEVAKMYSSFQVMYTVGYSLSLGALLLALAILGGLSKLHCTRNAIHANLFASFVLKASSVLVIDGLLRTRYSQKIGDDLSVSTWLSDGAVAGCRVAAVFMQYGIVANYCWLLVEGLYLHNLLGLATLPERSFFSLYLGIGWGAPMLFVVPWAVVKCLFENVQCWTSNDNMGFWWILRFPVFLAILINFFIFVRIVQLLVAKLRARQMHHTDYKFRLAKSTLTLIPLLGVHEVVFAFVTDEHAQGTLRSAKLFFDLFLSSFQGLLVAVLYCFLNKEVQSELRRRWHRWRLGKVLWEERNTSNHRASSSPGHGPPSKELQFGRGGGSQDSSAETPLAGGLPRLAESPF

Row | EC50 [1] [nM] | EC50 [2] [nM] | EC50 [3] [nM] | SMILES
1 | 0.0254 | 90.6 | 90.6 | CCCCCCCCCCCCCCCC(=O)NCCCC[C@H](NC(=O)[C@H](CCCNC(=N)N)NC(=O)CNC(=O)[C@H](CCCCN)NC(=O)[C@@H](NC(=O)[C@H](CC(C)C)NC(=O)[C@H](Cc1c[nH]c2ccccc12)NC(=O)[C@H](C)NC(=O)[C@@H](NC(=O)[C@H](Cc1ccccc1)NC(=O)[C@H](CCC(=O)O)NC(=O)[C@H](CCCCN)NC(=O)[C@H](C)NC(=O)[C@H](C)NC(=O)[C@H](CCC(N)=O)NC(=O)CNC(=O)[C@H](CCC(=O)O)NC(=O)[C@H](CC(C)C)NC(=O)[C@H](Cc1ccc(O)cc1)NC(=O)[C@H](CO)NC(=O)[C@H](CO)NC(=O)[C@@H](NC(=O)[C@H](CC(=O)O)NC(=O)[C@H](CO)NC(=O)[C@@H](NC(=O)[C@H](Cc1ccccc1)NC(=O)[C@@H](NC(=O)CNC(=O)[C@H](CCC(=O)O)NC(=O)C(C)(C)NC(=O)[C@@H](N)Cc1c[nH]cn1)[C@@H](C)O)[C@@H](C)O)C(C)C)[C@@H](C)CC)C(C)C)C(N)=O [SEQ ID NO: 5, H-(Aib)^2-EGT^5 FTSDV^10 SSYLE^15 GQAAK^20 EFIAW^25 LVKGR^30-K(Ε-Palm), reference compound]
2 | 0.026 | 153 | 74.9 | CC[C@H](C)[C@H](NC(=O)[C@H](Cc1ccccc1)NC(=O)[C@H](CCC(=O)O)NC(=O)[C@H](CCCCN)NC(=O)[C@H](C)NC(=O)[C@H](C)NC(=O)[C@H](CCC(N)=O)NC(=O)CNC(=O)[C@H](CCC(=O)O)NC(=O)[C@H](CC(C)C)NC(=O)[C@H](Cc1ccc(O)cc1)NC(=O)[C@H](CO)NC(=O)[C@H](CO)NC(=O)[C@@H](NC(=O)[C@H](CC(=O)O)NC(=O)[C@H](CO)NC(=O)[C@@H](NC(=O)[C@](C)(Cc1ccccc1)NC(=O)[C@@H](NC(=O)CNC(=O)[C@H](CCC(=O)O)NC(=O)C(C)(C)NC(=O)[C@@H](N)Cc1c[nH]cn1)[C@@H](C)O)[C@@H](C)O)C(C)C)C(=O)N[C@@H](C)C(=O)N[C@@H](Cc1c[nH]c2ccccc12)C(=O)N[C@@H](CC(C)C)C(=O)N[C@H](C(=O)N[C@@H](CCCCN)C(=O)NCC(=O)N[C@@H](CCCNC(=N)N)C(N)=O)C(C)C [SEQ ID NO: 6, H-(Aib)^2-EGT^5-(α-MeF)^6-TSDV^10 SSYLE^15 GQAAK^20 EFIAW^25 LVKGR^30]
3 | 0.191 | – | 102 | CC[C@H](C)[C@H](NC(=O)[C@](C)(Cc1ccccc1)NC(=O)[C@H](CCC(=O)O)NC(=O)[C@H](CCCCN)NC(=O)[C@H](C)NC(=O)[C@H](C)NC(=O)[C@H](CCC(N)=O)NC(=O)CNC(=O)[C@H](CCC(=O)O)NC(=O)[C@H](CC(C)C)NC(=O)[C@](C)(Cc1ccccc1)NC(=O)[C@H](CO)NC(=O)[C@H](CO)NC(=O)[C@@H](NC(=O)[C@H](CC(=O)O)NC(=O)[C@H](CO)NC(=O)[C@@H](NC(=O)[C@H](Cc1ccccc1)NC(=O)[C@H](CO)NC(=O)CNC(=O)[C@H](CCC(=O)O)NC(=O)C(C)(C)NC(=O)[C@@H](N)Cc1c[nH]cn1)[C@@H](C)O)C(C)C)C(=O)N[C@@H](C)C(=O)N[C@@](C)(Cc1ccccc1)C(=O)N[C@@H](CC(C)C)C(=O)N[C@H](C(=O)N[C@@H](CCCCN)C(=O)NCC(=O)N[C@@H](CCCNC(=N)N)C(N)=O)C(C)C [SEQ ID NO: 37, H-(Aib)^2-EG-(S)^5-FTSDV^10 SS-(α-MeF)^13-LE^15 GQAAK^20 E-(α-MeF)^22-IA-(α-MeF)^25 LVKGR^30] (H-H[Aib]EGSFTSDVSS[αMeF]LEGQAAKE[αMeF]IA[αMeF]LVKGR-NH2)
4 | 0.0322 | – | 102 | CC[C@H](C)[C@H](NC(=O)[C@](C)(Cc1ccccc1)NC(=O)[C@H](CCC(=O)O)NC(=O)[C@H](CCCCN)NC(=O)[C@H](C)NC(=O)[C@H](C)NC(=O)[C@H](CCC(N)=O)NC(=O)CNC(=O)[C@H](CCC(=O)O)NC(=O)[C@H](CC(C)C)NC(=O)[C@](C)(Cc1ccccc1)NC(=O)[C@H](CO)NC(=O)[C@H](CO)NC(=O)[C@@H](NC(=O)[C@H](CC(=O)O)NC(=O)[C@H](CO)NC(=O)[C@@H](NC(=O)[C@](C)(Cc1ccccc1)NC(=O)[C@H](CO)NC(=O)CNC(=O)[C@H](CCC(=O)O)NC(=O)C(C)(C)NC(=O)[C@@H](N)Cc1c[nH]cn1)[C@@H](C)O)C(C)C)C(=O)N[C@@H](C)C(=O)N[C@@](C)(Cc1ccccc1)C(=O)N[C@@H](CC(C)C)C(=O)N[C@H](C(=O)N[C@@H](CCCCN)C(=O)NCC(=O)NCC(N)=O)C(C)C [SEQ ID NO: 39, H-(Aib)^2-EG-(S)^5-(α-MeF)^6-TSDV^10 SS-(α-MeF)^13-LE^15 GQAAK^20 E-(α-MeF)^22-IA-(α-MeF)^25 LVKG-(G)^30] (H-H[Aib]EGS[αMeF]TSDVSS[αMeF]LEGQAAKE[αMeF]IA[αMeF]LVKGG-NH2)
5 | 0.254 | – | 102 | CC[C@H](C)[C@H](NC(=O)[C@](C)(Cc1ccccc1)NC(=O)[C@H](CCC(=O)O)NC(=O)[C@H](CCCCN)NC(=O)[C@H](C)NC(=O)[C@H](C)NC(=O)[C@H](CCC(N)=O)NC(=O)CNC(=O)[C@H](CCC(=O)O)NC(=O)[C@H](CC(C)C)NC(=O)[C@](C)(Cc1ccccc1)NC(=O)[C@H](CO)NC(=O)[C@H](CO)NC(=O)[C@@H](NC(=O)[C@H](CC(=O)O)NC(=O)[C@H](CO)NC(=O)[C@@H](NC(=O)[C@](C)(Cc1ccccc1)NC(=O)[C@H](CO)NC(=O)CNC(=O)[C@H](CCC(=O)O)NC(=O)C(C)(C)NC(=O)[C@@H](N)Cc1c[nH]cn1)[C@@H](C)O)C(C)C)C(=O)N[C@@H](C)C(=O)N[C@@](C)(Cc1ccccc1)C(=O)N[C@@H](CC(C)C)C(=O)NC(C)(C)C(=O)N[C@@H](CCCCN)C(=O)NCC(=O)N[C@@H](CCCNC(=N)N)C(N)=O [SEQ ID NO: 40, H-(Aib)^2-EG-(S)^5-(α-MeF)^6-TSDV^10 SS-(α-MeF)^13-LE^15 GQAAK^20 E-(α-MeF)^22-IA-(α-MeF)^25 L-(Aib)27-KGR^30] (H-H[Aib]EGS[αMeF]TSDVSS[αMeF]LEGQAAKE[αMeF]IA[αMeF]L[Aib]KGR-NH2)
6 | 0.0234 | – | 102 | CC[C@H](C)[C@H](NC(=O)[C@](C)(Cc1ccccc1)NC(=O)[C@H](CCC(=O)O)NC(=O)[C@H](CCCCN)NC(=O)[C@H](C)NC(=O)[C@H](C)NC(=O)[C@H](CCC(N)=O)NC(=O)CNC(=O)[C@H](CCC(=O)O)NC(=O)[C@H](CC(C)C)NC(=O)[C@](C)(Cc1ccccc1)NC(=O)[C@H](CO)NC(=O)[C@H](CO)NC(=O)[C@@H](NC(=O)[C@H](CC(=O)O)NC(=O)[C@H](CO)NC(=O)[C@@H](NC(=O)[C@](C)(Cc1ccccc1)NC(=O)[C@H](CO)NC(=O)CNC(=O)[C@H](CCC(=O)O)NC(=O)C(C)(C)NC(=O)[C@@H](N)Cc1c[nH]cn1)[C@@H](C)O)C(C)C)C(=O)N[C@@H](C)C(=O)N[C@@](C)(Cc1ccccc1)C(=O)N[C@@H](CC(C)C)C(=O)N[C@H](C(=O)N[C@@H](CCCCN)C(=O)NC(C)(C)C(=O)N[C@@H](CCCNC(=N)N)C(N)=O)C(C)C [SEQ ID NO: 42, H-(Aib)^2-EG-(S)^5-(α-MeF)^6-TSDV^10 SS-(α-MeF)^13-LE^15 GQAAK^20 E-(α-MeF)^22-IA-(α-MeF)^25 LVK-(Aib)^29-R^30] (H-H[Aib]EGS[αMeF]TSDVSS[αMeF]LEGQAAKE[αMeF]IA[αMeF]LVK[Aib]R-NH2)
7 | 0.0707 | – | 102 | CC[C@H](C)[C@H](NC(=O)[C@](C)(Cc1ccccc1)NC(=O)[C@H](CCC(=O)O)NC(=O)[C@H](CCCCN)NC(=O)[C@H](C)NC(=O)[C@H](C)NC(=O)[C@H](CCC(N)=O)NC(=O)CNC(=O)[C@H](CCC(=O)O)NC(=O)[C@H](CC(C)C)NC(=O)[C@](C)(Cc1ccccc1)NC(=O)[C@H](CO)NC(=O)[C@H](CO)NC(=O)[C@@H](NC(=O)[C@H](CC(=O)O)NC(=O)[C@H](CO)NC(=O)[C@@H](NC(=O)[C@](C)(Cc1ccccc1)NC(=O)[C@H](CO)NC(=O)CNC(=O)[C@H](CCC(=O)O)NC(=O)C(C)(C)NC(=O)[C@@H](N)Cc1c[nH]cn1)[C@@H](C)O)C(C)C)C(=O)N[C@@H](C)C(=O)N[C@@](C)(Cc1ccccc1)C(=O)N[C@@H](CC(C)C)C(=O)NC(C)(C)C(=O)N[C@@H](CCCCN)C(=O)NC(C)(C)C(=O)N[C@@H](CCCNC(=N)N)C(N)=O [SEQ ID NO: 43, H-(Aib)^2-EG-(S)^5-(α-MeF)^6-TSDV^10 SS-(α-MeF)^13-LE^15 GQAAK^20 E-(α-MeF)^22-IA-(α-MeF)^25 L-(Aib)^27-K-(Aib)^29-R^30] (H-H[Aib]EGS[αMeF]TSDVSS[αMeF]LEGQAAKE[αMeF]IA[αMeF]L[Aib]K[Aib]R-NH2)
